Experimental data reported in patent US20220362219A1, “RETINA REGENERATION THROUGH EPIGENETICS MANIPULATION” (Baylor College of Medicine, priority 2019, published 2022).
“Also recorded” adds a separate entry of the source.

Legend:
Spata7 mutant retina = experiment: Intravitreal injection in Spata7 knockout retinal degeneration mouse model (H&E, immunohistochemistry); type: in vivo
Protocol: (§1) FIGS. 1A-1C concern an example of retinal regeneration in Spata7-mutated (KO) retinal cells. (1A) One example of a timeline for studies, where the examples of timepoints are post-natal day 14, 21, and 34, respectively. (1B) Hematoxylin and eosin (H&E) staining for Spata7 KO mice versus wild-type control. Eyes were injected with SYC1127 (treated) eye compared to PBS-injected control. (1C) Immunofluorescence staining for Cone-rod homeobox protein (CRX, a marker for photoreceptor cells and bipolar cells); Glial fibrillary acidic protein (GFAP, a marker for Müller glial cells); and RNA Binding Protein, MRNA Processing Factor (RBPMS, a marker for retinal ganglion cells (RGC)) in Spata7 KO-treated eye (treated with SYC1127) and control eye (treated with PBS).
(§2) H&E staining of all three neural layers of the retina is shown following intravitreal injection of SYC1127 in wild-type mice vs. Spata7 KO mutants.
Immunohistochemistry using antibodies that bind Sox9 or GFAP, both markers of Müller glial cells, is provided for SYC1127-treated Spata7 KO mutants vs. PBS controls.
In this present example, one example of a potent Histone Acetylation Transferase inhibitor (HATi), the compound SYC1127, is administered by intravitreal injection in a retinal degeneration mouse model having a knockout mutation in Spata7. An example of an injection regimen is provided in FIG. 1A, in which there are multiple intravitreal injections. […] To examine if these newly generated cells are indeed differentiated properly, immunohistochemistry (IHC) using antibodies against certain cell type-specific markers is performed. […] The number of regenerative cells is much higher than that of previously reported by others, making it useful for therapy.
Retinal regeneration is induced through epigenomics manipulation, in particular embodiments. […] As at least one type of retinal cells, retinal ganglion cells are induced following administration of SYC1127.

wild-type control retina = experiment: Intravitreal injection in wild-type control retina (H&E); type: in vivo
Protocol: as §1, §2
In this present example, one example of a potent Histone Acetylation Transferase inhibitor (HATi), the compound SYC1127, is administered by intravitreal injection in a retinal degeneration mouse model having a knockout mutation in Spata7. An example of an injection regimen is provided in FIG. 1A, in which there are multiple intravitreal injections. […]

[1] = tested on: histone markers H3K27Ac and H3K9Me3 in the retina; experiment: Chromatin modification in the retina after intravitreal injection (antibody staining of histone markers); type: in vivo, mouse; conditions: FIG. 2
From the text: The outer nuclear layers (ONL) and the inner nuclear layers (INL) of the respective retina are shown. Markers related to reduced levels of histone acetylation (H3K27Ac) and increased levels of histone […] are identified with corresponding antibodies.
Further evidence is provided that HATi are useful for chromatin modifications that lead to epigenomic manipulation, thereby leading to regeneration of retinal cells. […] Upon intravitreal injection of the compound SYC1127, there is reduction in the level of histone acetylation as expected, such as with H3K27Ac (an epigenetic modification to Histone H3 that is a mark that indicates the acetylation at the 27th lysine residue of the Histone H3 protein). At the same time, the level of chromatin-repressing histone markers, such as H3K9Me3, is increased.

## c1cc(-c2ccc(-c3ncc(OCC4CCNCC4)nc3-c3ccc(-c4ccoc4)cc3)cc2)co1 [SYC1127, 2,3-bis(4-(furan-3-yl)phenyl)-5-(piperidin-4-ylmethoxy)pyrazine]
Spata7 mutant retina; Spata7 KO, IHC, FIG. 5
  migration of Müller glial cells: Migration of Müller glial cells from the INL to photoreceptor and retinal ganglion cell layers
  number of Müller glial cells (Sox9 positive cells and GFAP staining): Increase in the number of Müller glial cells
Spata7 mutant retina; intravitreal injection, H&E, FIG. 1B
  thickness of neuronal layers vs uninjected Spata7 mutant retina: thickening of all three neuronal layers
Spata7 mutant retina; intravitreal injection, H&E, FIG. 1B / FIG. 3
  cell proliferation in Spata7 mutant retina: extensive cell proliferation; also recorded: proliferation of all three neural layers of the retina
Spata7 mutant retina; intravitreal injection, IHC, FIG. 1C
  Müller glia cell activation (GFAP staining): massive elevated Müller glia cell activation
Spata7 mutant retina; intravitreal injection, IHC, FIG. 1C / FIG. 4
  retinal ganglion cells (RBPMS staining): multiple layers of cells that are positive for retinal ganglion cells (RGC) are observed; also recorded: increase of cells in the RGC layer
Spata7 mutant retina; intravitreal injection, overall conclusion
  regeneration of retinal neurons in degenerating retina: complete regeneration of retinal neurons
wild-type control retina; FIG. 1B
  toxicity of injection of the drug: not toxic
wild-type control retina; wild-type, FIG. 1B / FIG. 3
  change in wild-type control retina: little change; also recorded: no changes are observed
[1]
  level of chromatin-repressing histone markers (H3K9Me3): increased
  level of histone acetylation (H3K27Ac): reduction
